Some test systems named below: HCT-116 colon; SF-295 CNS; SF-539 CNS; SK-MEL-28 melanoma; TK-10 renal; UACC-257 melanoma; UACC-62 melanoma; HL-60(TB) leukemia; RPMI-8226 leukemia; SNB-19 CNS.
Common to all, as to assay: NCI anticancer screen, dose series, 48 h

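Cells were grown in 96-well plates and exposed to each compound for 48 hours at five concentrations; endpoints were interpolated linearly between bracketing concentrations, or set to the highest concentration if not reached. TGI: concentration producing complete growth inhibition.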

As to `O=P(Nc1ccc(Cl)cc1)(Oc1ccccc1)N(CCCl)CCCl` (stereo not drawn), the TGI in the assay with HCT-116 colon, in the assay with SF-295 CNS, in the assay on SF-539 CNS, with SK-MEL-28 melanoma, in the assay on TK-10 renal and in the assay on UACC-257 melanoma was more than 100 µM each time. The TGI with UACC-62 melanoma was more than 100 µM.

Consider `CC12C(=O)CC(CC1=O)C2(C)C`, for which the TGI in the assay on HCT-116 colon, with HL-60(TB) leukemia, with RPMI-8226 leukemia, in the assay with SF-295 CNS, with SK-MEL-28 melanoma and with SNB-19 CNS was more than 100 µM in each case. In addition, the TGI with TK-10 renal, in the assay with UACC-257 melanoma and in the assay with UACC-62 melanoma was more than 100 µM in each case.

For `Oc1ccc(-c2nc(-c3cccnc3)c(-c3ccc(Cl)cc3)[nH]2)cc1`, the TGI in the assay on HCT-116 colon is 31.6 µM; with HL-60(TB) leukemia, 36.7 µM; with RPMI-8226 leukemia, 30 µM; with SF-295 CNS, 27.3 µM; in the assay with SK-MEL-28 melanoma it was 32.1 µM; in the assay with SNB-19 CNS it was 31.2 µM. The figures for the TGI with TK-10 renal, in the assay with UACC-257 melanoma and in the assay on UACC-62 melanoma were 26.3 µM, 29.6 µM and 25.9 µM, respectively.

In the case of `O=C(NNC(=S)Nc1cccc(Cl)c1)c1cc(-c2ccccc2)nc2ccccc12`, the TGI in the assay on HCT-116 colon turned out to be 30.3 µM; in the assay with RPMI-8226 leukemia, 75.3 µM; with SF-295 CNS, 24.5 µM; in the assay with SF-539 CNS, 29.8 µM; in the assay with SK-MEL-28 melanoma, 26.5 µM; in the assay with SNB-19 CNS, 33.9 µM. Besides, the TGI stood at 30.8 µM in the assay on TK-10 renal, 31.5 µM in the assay on UACC-257 melanoma and 26.7 µM in the assay on UACC-62 melanoma.

In the case of `CCOC(=O)c1cc(C(O)P2(=O)N(CC(C)(C)C)[C@@H]3CCCC[C@H]3N2CC(C)(C)C)cn1C(=O)OC(C)(C)C` (stereo partly drawn), the TGI with HCT-116 colon stood at 23.2 µM; in the assay on HL-60(TB) leukemia, 48.6 µM; in the assay on RPMI-8226 leukemia, 29.8 µM; in the assay with SF-295 CNS, 32 µM; with SK-MEL-28 melanoma, 30.3 µM; with SNB-19 CNS it was 46.2 µM. The TGI in the assay with TK-10 renal came to 57.3 µM; with UACC-257 melanoma, 28.7 µM; in the assay with UACC-62 melanoma, 28.6 µM.

In the case of `CCOC(=O)CNc1c(OCc2ccccc2)c(=O)c1=O`, the TGI in the assay with HCT-116 colon, in the assay with RPMI-8226 leukemia, in the assay with SF-295 CNS, in the assay on SK-MEL-28 melanoma, in the assay with SNB-19 CNS and with TK-10 renal was more than 100 µM throughout. Besides, the TGI in the assay with UACC-257 melanoma and in the assay on UACC-62 melanoma was more than 100 µM in each case.

In the case of `CN1CCC(O)(C(C)(C)C)CC1`, the TGI in the assay on HCT-116 colon, in the assay with HL-60(TB) leukemia, in the assay on RPMI-8226 leukemia, with SF-295 CNS, in the assay with SK-MEL-28 melanoma and in the assay on SNB-19 CNS was more than 100 µM throughout. The TGI with TK-10 renal, with UACC-257 melanoma and with UACC-62 melanoma was more than 100 µM throughout.

Turning to `O=C1CSC(c2cccc(Oc3ccccc3)c2)N1c1ccc(Cl)cc1` (stereo not drawn), the TGI in the assay with HCT-116 colon was 37.9 µM; in the assay on HL-60(TB) leukemia, more than 100 µM; in the assay with SF-295 CNS, more than 100 µM; in the assay on SF-539 CNS, more than 100 µM; in the assay with SK-MEL-28 melanoma it was more than 100 µM; with SNB-19 CNS, more than 100 µM. In addition, the results for the TGI in the assay on TK-10 renal, in the assay on UACC-257 melanoma and with UACC-62 melanoma were 71.9 µM, 46.5 µM and 34.2 µM, respectively.

As to `CC1NC(=O)CC(c2ccccc2)N(N=O)C1c1ccccc1` (stereo not drawn), the TGI with HCT-116 colon is more than 100 µM; in the assay on HL-60(TB) leukemia, more than 67.2 µM; in the assay with RPMI-8226 leukemia, 90.8 µM; in the assay with SF-295 CNS it was more than 100 µM; in the assay with SF-539 CNS, 48.4 µM; in the assay with SK-MEL-28 melanoma, more than 100 µM. The figures for the TGI with SNB-19 CNS, in the assay with UACC-257 melanoma and in the assay on UACC-62 melanoma were more than 91.3 µM, more than 100 µM and more than 100 µM, respectively.

On to `O=Cc1ccc2c(c1)CC1(Cc3ccccc3C1)C2`, for which the TGI in the assay with HCT-116 colon is more than 100 µM; in the assay on HL-60(TB) leukemia, 39.5 µM; in the assay on RPMI-8226 leukemia, 53.4 µM; with SF-295 CNS it was 94.5 µM; in the assay with SF-539 CNS it was 33.2 µM; with TK-10 renal, more than 100 µM. The TGI in the assay with UACC-257 melanoma worked out at 44.1 µM; with UACC-62 melanoma it was 41.4 µM.

`NC(Cc1ccccc1)C(=O)N[C@H]1c2ccsc2/C(=N/O)[C@H]1O` (stereo partly drawn): the TGI with HCT-116 colon, in the assay with HL-60(TB) leukemia, with SF-295 CNS, with SF-539 CNS, in the assay with SK-MEL-28 melanoma and in the assay with TK-10 renal was more than 100 µM in each case. Further, the TGI with UACC-257 melanoma and with UACC-62 melanoma was more than 100 µM each time.

On to `O=C(NI1OC(=O)c2ccccc21)c1ccc(Cl)cc1`, for which the TGI in the assay on HCT-116 colon, in the assay with HL-60(TB) leukemia, in the assay on RPMI-8226 leukemia, in the assay with SF-295 CNS, in the assay with SF-539 CNS and with SK-MEL-28 melanoma was more than 100 µM throughout. Moreover, the TGI in the assay with TK-10 renal, with UACC-257 melanoma and with UACC-62 melanoma was more than 100 µM throughout.

On to `O=C1/C(=N/O)Cc2c(Br)ccc(Br)c21`, for which the TGI was more than 100 µM in the assay with HCT-116 colon; 76.3 µM in the assay on HL-60(TB) leukemia; more than 100 µM with RPMI-8226 leukemia; more than 100 µM in the assay with SF-295 CNS; more than 100 µM with SF-539 CNS; more than 100 µM in the assay with SK-MEL-28 melanoma. Moreover, the TGI in the assay on TK-10 renal and in the assay with UACC-257 melanoma was more than 100 µM in each case.

For `NC(N)=NCCC[C@H](N)C(=O)NCC(=O)N[C@@H](CC(=O)O)c1ncc(NC(=O)C(F)(F)F)o1`, the TGI with HCT-116 colon, in the assay with HL-60(TB) leukemia, with SF-295 CNS, with SF-539 CNS, with SK-MEL-28 melanoma and with TK-10 renal was more than 25 µM each time. For the same compound, the TGI in the assay on UACC-257 melanoma and in the assay with UACC-62 melanoma was more than 25 µM in each case.

`CCOC(=O)N/N=C(/N)c1cccc([N+](=O)[O-])c1`: the TGI in the assay with HCT-116 colon, in the assay with HL-60(TB) leukemia, in the assay with SF-295 CNS, in the assay on SF-539 CNS, with SK-MEL-28 melanoma and in the assay on SNB-19 CNS was more than 100 µM throughout. For the same compound, the TGI in the assay on TK-10 renal, with UACC-257 melanoma and with UACC-62 melanoma was more than 100 µM in each case.

For the origin of these results see PubChem BioAssay (NCI).
